The values that follow come from patent US12599597B2, “Substituted N-benzhydrylacetamide inhibitors of jumanji domain histone demethylases for the treatment of cancer” (University of Kentucky Research Foundation, priority 2020, dated 2026).

The inhibition is the share of the control response that was lost under treatment. High values mean strong suppression, low ones little suppression.

For one test, the target named is T1, JMJD1A (KDM3A) (Homo sapiens, UniProt Q9Y4C1).
T1 sequence (Q9Y4C1 1-1321): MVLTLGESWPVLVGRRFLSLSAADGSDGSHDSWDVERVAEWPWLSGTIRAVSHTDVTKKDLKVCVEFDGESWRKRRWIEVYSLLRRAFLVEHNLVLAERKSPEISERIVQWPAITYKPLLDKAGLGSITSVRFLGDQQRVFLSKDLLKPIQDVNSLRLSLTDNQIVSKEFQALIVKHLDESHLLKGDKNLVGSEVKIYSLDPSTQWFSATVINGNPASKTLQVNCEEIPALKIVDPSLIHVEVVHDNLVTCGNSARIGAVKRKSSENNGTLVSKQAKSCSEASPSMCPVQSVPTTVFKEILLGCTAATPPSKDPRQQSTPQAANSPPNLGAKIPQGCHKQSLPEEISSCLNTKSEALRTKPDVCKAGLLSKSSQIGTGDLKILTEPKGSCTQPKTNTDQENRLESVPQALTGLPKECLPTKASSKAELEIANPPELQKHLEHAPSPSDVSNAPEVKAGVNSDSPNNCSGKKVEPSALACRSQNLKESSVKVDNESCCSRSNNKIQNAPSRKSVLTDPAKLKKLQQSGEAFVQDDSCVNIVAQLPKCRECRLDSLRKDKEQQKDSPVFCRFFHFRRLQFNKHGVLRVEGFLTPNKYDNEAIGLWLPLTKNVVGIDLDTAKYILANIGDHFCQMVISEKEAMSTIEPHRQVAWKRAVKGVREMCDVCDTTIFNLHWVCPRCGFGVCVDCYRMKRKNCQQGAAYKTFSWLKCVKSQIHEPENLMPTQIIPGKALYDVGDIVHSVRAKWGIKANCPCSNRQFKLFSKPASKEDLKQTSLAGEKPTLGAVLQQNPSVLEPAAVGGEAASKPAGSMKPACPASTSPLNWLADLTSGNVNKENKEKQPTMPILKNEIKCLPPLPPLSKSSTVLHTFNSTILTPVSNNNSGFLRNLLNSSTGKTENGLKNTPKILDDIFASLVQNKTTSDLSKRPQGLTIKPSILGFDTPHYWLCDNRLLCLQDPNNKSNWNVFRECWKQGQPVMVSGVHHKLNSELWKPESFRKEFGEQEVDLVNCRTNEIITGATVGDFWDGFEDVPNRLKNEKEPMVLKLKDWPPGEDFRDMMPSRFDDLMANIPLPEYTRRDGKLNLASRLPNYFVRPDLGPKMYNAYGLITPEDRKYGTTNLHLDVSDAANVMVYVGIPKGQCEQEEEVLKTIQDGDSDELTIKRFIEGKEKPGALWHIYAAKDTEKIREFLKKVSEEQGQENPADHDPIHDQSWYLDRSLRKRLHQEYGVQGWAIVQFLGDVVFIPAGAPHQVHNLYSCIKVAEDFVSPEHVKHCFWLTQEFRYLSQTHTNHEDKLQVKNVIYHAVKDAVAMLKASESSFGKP
In words: Histone demethylase assay / KDM3A enzymatic activity in vitro. Type of test: biochemical. The text has this:
Histone Demethylase Assay
To further examine the effects of 58B1 on histone demethylase, we screened a panel of purified histone demethylases was screened.
Identification of KDM3A as a target of CBA-1. KDM3A regulated H3K9Me^2 and underwent significant upregulation in CRC. To test if CBA-1 targeted KDM3A, a biotinylated analog CBA-B2 (FIG. 7A) was synthesized. […] Knocking-down KDM3A by shRNA inhibited cell proliferation (FIG. 7D) and Wnt target gene expression in LS174T CRC cells (FIG. 7E).
Repurposing drugs as CBA-1 analogs and KDM3 inhibitors. CBA-1 is a specific and potent KDM3A inhibitor. As backup candidates, two approved drugs were identified as CBA-1 analogs and KDM3A inhibitors. Based on the docking study (FIGS. 8A-B), the N and OH groups (red color in FIG. 12A) are critical in binding the Mn^2+ in KDM3A. […] A virtual screening was performed and several antibiotics that have similar structures were identified. Two of these antibiotics, clioquinol and nitroxoline (FIG. 12B), indeed inhibited the enzymatic activities of KDM3 (FIGS. 12C and D). These two drugs were tested in LS174T tumor xenograft model in SCID mice. […] Nitroxoline has been used in Europe for over 50 years as an antibiotic. It has anticancer effects, but the mechanism remains unclear.

In test [1] the test system is CRC organoids from Apc^f/+/Kras^LSL-G12D/Villin-Cre mice. In words: Mouse CRC organoids formation. Type of test: cell-based. The conditions noted are these: 3 μM; p<0.01. The method, then:
FIGS. 11A-B show an image and a graph illustrating mouse CRC organoids. (A) CRC organoids from Apc^f/+/Kras^LsL-G12D/Villin-Cre mice. (B) CBA-1 (3 μM) inhibited CRC organoids (*p<0.01; n=3).
CRC organoids models. To analyze the effects of CBA-1 in CRC, a colon cancer organoid model was established from Apc^f/+/Kras^LSL-G12D/Villin-Cre mice (FIG. 11A).

The compound `CCCC(=O)NC(c1ccc(N(CC)CC)cc1)c1cc(Cl)c2cccnc2c1O` (stereo not drawn) [58B1] had an inhibition at 10 µM on JMJD1A (KDM3A) (58B1, 10 μM) of 99%. In addition, the “KDM3A activity in vitro, dose-response study” value at JMJD1A (KDM3A) (at low micromolar levels) is on record as “inhibited”. In addition, in test [1], the “mouse CRC organoids formation” value is “significantly inhibited”.
